Measurements taken from patent US8173632B2, “Process for the modification of the solid state of a compound and co-amorphous compositions produced with same” (priority 2007, dated 2012).
Values after ≈ are worked out from the molar mass of the structure shown. “Also recorded” adds a separate entry of the source.

What was measured:
[1] = room temperature; cited from earlier work
[2] = Room temperature storage stability of the non-crystalline / co-amorphous form against recrystallization; type: physicochemical; conditions: for stability of the non-crystalline / co-amorphous form, tendency to recrystallization (in words): room temperature storage
From the text: The present invention is directed to stable crystalline and non-crystalline forms of organic compositions, particularly pharmaceutical compositions, that are stable at room temperature and to processes for producing the stable crystalline and non-crystalline forms with the process of the invention.
Within an hour of the evaporation, the system stabilized with 80 percent or more of the mass of the sample cured to a clear non-crystalline form rather than a crystalline form.
After the 6 months of storage, the laser treated aspirin was studied by PXRD.
(§1) Subsequent tests with the protocol of Example 1b were repeated with the order of long and short wavelengths reversed, i.e., short wavelength followed by long wavelength cycled sequenced laser treatment. This protocol also produced up to 90 percent yields of room temperature stable non-crystalline glass aspirin, which remained stable at room temperature for over 23 months. The Petri dish containing such a sample of non-crystalline aspirin was placed on edge for a period of about six weeks.
The glass cover was removed and the sample was allowed to desolvate in an open container through slow evaporation at about 20° C. and a relative humidity of 31 percent. Before the solvent had fully evaporated, the sample developed a few small areas of apparent crystallization that were surrounded with marker lines. As the evaporation continued, no significant extension of the crystal fronts was observed.

[3] = Petri dish with non-crystalline aspirin placed on edge (flow test); type: physicochemical; conditions: Petri dish placed on edge for about six weeks
From the text: as §1

[4] = literature reports; temperature as stated in value; cited from earlier work
[5] = bulk form, same mass; cited from earlier work

| Structure (SMILES) | stability of the non-crystalline / co-amorphous form, tendency to recrystallization (in words) [2] | stability of prior art aspirin forms against conversion / crystallization (in words) [4] | other results |
| --- | --- | --- | --- |
| CC(=O)Oc1ccccc1C(=O)O [crystalline aspirin, Aspirin] | – | – | solubility in water [1]: 3330 µg/mL (≈ 18.5 mM) |
| CC(=O)Oc1ccccc1C(=O)O [non-crystalline aspirin, Aspirin] | remain stable at room temperature for at least up to about a year; also recorded: stable at room temperature once the solvent had evaporated; also recorded: No crystallization has been observed in similarly prepared samples following an additional six months of storage | – | period of storage with no change in appearance of the sample ([2]; room temperature of about 18° to 22° C. and about 30 to 40 percent humidity, Example 1b): over 6 months; period the non-crystalline glass remained stable ([2]; room temperature, Example 1c, short wavelength followed by long wavelength): over 23 months; flowing of the sample [3]: No flowing of the sample was observed |
| CC(=O)Oc1ccccc1C(=O)O [vitreous aspirin, aspirin] | – | did not crystallize for four to five days at 298K | dissolution of bulk vitreous aspirin compared with powdered crystals [5]: dissolve more slowly than the same mass of finely powdered crystals of aspirin |
| CC(=O)Oc1ccccc1C(=O)O [amorphous aspirin, aspirin] | – | converts rapidly to the crystalline Form I | – |
| CC(=O)Oc1ccccc1C(=O)O [Aspirin Form II, aspirin] | – | kinetically stable at 100 K (−173° C.), but converts back to Form I at ambient conditions | – |
| O=C1[C@H](CC[C@H](O)c2ccc(F)cc2)[C@@H](c2ccc(O)cc2)N1c1ccc(F)cc1 [non-crystalline ezetimibe, Ezetimibe] | remained stable for five weeks; also recorded: resisted crystallization even when adjacent to an organizing crystal front | – | – |
